These results are taken from patent publication US10731159B2, “Cationic lipid” (DAIICHI SANKYO COMPANY, LIMITED, priority 2013, dated 2020).

Data set [1] can be described thus: Average particle size of nucleic acid lipid particle (NICOMP 380ZLS). Type of data set: physicochemical. As for the experimental part:
The particle size of the liposome was measured using Zeta Potential/Particle Sizer NICOMP™ 380ZLS (Particle Sizing Systems, LLC). In the tables, the average particle size is indicated by a volume-average particle size, and the numeric value following ±represents a deviation.

Data set [2] concerns human β-catenin gene. Nature of the data set: Test Example 8: β-catenin gene expression inhibition in SW480 cells, procedures of Test Example 3, 50-0.05 nM. The conditions noted are these: for inhibitory activity against β-catenin gene expression (in words): compared with particle containing lipid of Reference Example 2; for IC50: procedures of Test Example 3, 50, 5, 0.5, 0.05 nM, particles of Example 55, read-out: β-catenin gene expression inhibitory activity IC50. In kind it is cell-based. As for the experimental part:
(§1) The concentration of a human colorectal cancer SW480 cell line (derived from human colorectal adenocarcinoma) was adjusted to 50000 cells/mL in a RPMI1640 medium (manufactured by Invitrogen Corp.) containing 10% fetal bovine serum (culture medium). Then, the resulting culture solution was inoculated at 100 μL/well to a 96-well flat-bottomed plate (manufactured by Corning Inc./Falcon) and cultured at 37° C. for 1 day under 5.0% CO2. The nucleic acid lipid particle-containing dispersion prepared in Example 31 was diluted with a culture medium to prepare dilution series having final double-stranded polynucleotide concentrations of 30, 3, 0.3, and 0.03 nM in the medium. Then, each dilution was added to the cells after removal of the culture supernatant, and the culture was further continued for 4 hours. This operation was performed at N=3 for each concentration.
(§2) A lysate and cDNA for real-time PCR measurement were prepared from the transfected cells using TaqMan® Fast-Cells-to-Ct kit (Life Technologies, Inc./Ambion) according to the instruction manual. In the lysate preparation, Lysis Solution supplemented with DNase I was used. The probes for real-time PCR used were TaqMan® Gene Expression Assays (CTNNB1, FAM probe) (Hs00355045_m1, manufactured by Applied Biosystems, Inc.) for the human β-catenin gene and a human GAPDH gene probe as an internal standard (VIC probe, Hs99999905_m1, manufactured by Applied Biosystems, Inc.). 5 μL of TaqMan® Fast Advanced Master Mix, 2 μL of RNase-Free Water, 0.5 μL of each gene probe, and 2 μL of the prepared cDNA solution were added per well of a 384-well PCR plate (manufactured by Applied Biosystems, Inc.) to bring the total amount to 10 μL, which was then loaded in ViiA™ 7 Real-time PCR system (manufactured by Applied Biosystems, Inc.) and subjected to PCR under conditions given below. The real-time PCR was carried out at N=4 for the cDNA prepared from the lysate.
(§3) The quantitative analysis was conducted by the ΔΔCt method.
By the same procedures as in Test Example 3, SW480 cells were treated with 50 nM, 5 nM, 0.5 nM, and 0.05 nM each of nucleic acid lipid particles each prepared using a novel lipid, and the strength of human β-catenin gene expression inhibitory activity was compared among these particles.

Data set [3] can be described thus: Rate of encapsulation of polynucleotide/mRNA (Quant-iT RiboGreen, with and without Triton X-100). Type of data set: physicochemical. As for the experimental part: The rate of encapsulation of the double-stranded polynucleotide was measured using Quant-iT RiboGreen RNA Assay kit (Invitrogen Corp.) according to the attached document.
Specifically, the double-stranded polynucleotide in the nucleic acid lipid particle dispersion was quantified in the presence and absence of a 0.015% Triton X-100 detergent, and the rate of encapsulation was calculated according to the following expression: {[Amount of the double-stranded polynucleotide in the presence of the detergent]−[Amount of the double-stranded polynucleotide in the absence of the detergent]}/[Amount of the double-stranded polynucleotide in the presence of the detergent]}×100(%) (3) Ratio of Double-Stranded Polynucleotide to Lipid
The rate of encapsulation of the mRNA was measured using Quant-iT RiboGreen RNA Assay kit (Invitrogen Corp.) according to the attached document.
Specifically, the mRNA in the nucleic acid lipid particle dispersion was quantified in the presence and absence of a 0.015% Triton X-100 detergent, and the rate of encapsulation was calculated according to the following expression: {[Amount of the mRNA in the presence of the detergent]−[Amount of the mRNA in the absence of the detergent]}/[Amount of the mRNA in the presence of the detergent]}×100(%) (3) Ratio of mRNA to Lipid

Data set [4] is described as follows: Ratio of polynucleotide/mRNA to lipid (wt/wt). Type of data set: physicochemical. As for the experimental part: The nucleic acid lipid particle dispersion was mixed with acetonitrile and chloroform at a ratio of 1:1:1 and centrifuged at 15,000 rpm for 2 minutes. Then, the aqueous layer obtained as an upper layer was recovered, followed by the extraction of the double-stranded polynucleotide. The amount of the double-stranded polynucleotide in the sample was measured by ion-exchange chromatography (system: Agilent 1100 series, column: TSKgel DEAE-2SW (2.6×150 mm) (Tosoh Corp), buffer A: 20% acetonitrile, buffer B: 20% acetonitrile and 1.6 M ammonium formate, gradient (B %): 30-55% (0-20 min), flow rate: 1 mL/min, temperature: 40° C., detection: 260 nm).
The amount of the phospholipid in the nucleic acid lipid particle dispersion was measured using Phospholipid C-Test Wako (Wako Pure Chemical Industries Ltd.) according to the attached document. Specifically, the phospholipid in the sample was quantified in the presence of a 1% Triton X-100 detergent.
The amounts of cholesterol and LP in the nucleic acid lipid particle dispersion were measured by reverse-phase chromatography (system: Agilent 1100 series, column: Chromolith Performance RP-18 endcapped 100-3 monolithic HPLC-column (Merck), buffer A: 0.01% trifluoroacetic acid, buffer B: 0.01% trifluoroacetic acid and methanol, gradient (B %): 87-92% (0-10 min), flow rate: 2 mL/min, temperature: 50° C., detection: 205 nm).
The total amount of lipids was calculated from the amount of the phospholipid and the compositional ratio of lipid components constituting the liposome, and the ratio of the polynucleotide to the lipid was calculated from the aforementioned amount of the polynucleotide and the total amount of lipids according to the following expression: [Double-stranded polynucleotide concentration]/[Total lipid concentration] (wt/wt)
The total amount of lipids was calculated from the amount of the phospholipid, the amount of cholesterol, and the amount of LP, and the compositional ratio of lipid components constituting the liposome, and the ratio of the polynucleotide to the lipid was calculated from the aforementioned amount of the polynucleotide and the total amount of lipids according to the following expression: [Double-stranded polynucleotide concentration]/[Total lipid concentration] (wt/wt)
The amount of the double-stranded polynucleotide in a sample from the nucleic acid lipid particle dispersion was measured in the presence of a 5% Triton X-100 detergent by ion-exchange chromatography (system: Agilent 1100 series, column: DNAPac PA200 (4×250 mm) (Thermo Fisher Scientific K.K.), buffer A: 10 mM Tris, 25 mM sodium perchlorate, and 20% ethanol, pH 7.0, buffer B: 10 mM Tris, 250 mM sodium perchlorate, and 20% ethanol, pH 7.0, gradient (B %): 20-70% (0-15 min), flow rate: 0.5 mL/min, temperature: 40° C., detection: 260 nm).
The amounts of cholesterol and LP in the nucleic acid lipid particle dispersion were measured by reverse-phase chromatography (system: Agilent 1100 series, column: Chromolith Performance RP-18 endcapped 100-3 monolithic HPLC-column (Merck), buffer A: 0.01% trifluoroacetic acid, buffer B: 0.01% trifluoroacetic acid and methanol, gradient (B %): 82-92% (0-10 min), flow rate: 2 mL/min, temperature: 50° C., detection: 205 nm).
The total amount of lipids was calculated from the amount of the phospholipid, the amount of cholesterol, and the amount of LP, and the compositional ratio of lipid components constituting the liposome, and the ratio of the mRNA to the lipid was calculated from the “amount of the mRNA in the presence of the detergent” of the preceding paragraph (2) according to the following expression: [mRNA concentration in the presence of the detergent]/[Total lipid concentration] (wt/wt)

Data set [5] concerns human β-catenin gene. As to the kind of experiment: Test Example 2: β-catenin gene expression inhibition in HepG2 cells, 3 days, real-time PCR. Type of data set: cell-based. The conditions noted are these: for inhibitory activity against β-catenin gene expression (in words): compared with particle containing lipid of Reference Example 2; for IC50: nucleic acid lipid particle of Example 31 containing the named lipid, read-out: β-catenin gene expression inhibitory activity IC50. As for the experimental part:
(§4) As described below, the strength of human β-catenin gene expression inhibitory activity was compared among nucleic acid lipid particles each prepared using a novel lipid.
as §1, with “liver” for “colorectal”, “HepG2” for “SW480”, “liver cancer)” for “colorectal adenocarcinoma)”, “DMEM” for “RPMI1640”, “3 days.” for “4 hours.”
as §2
(§5) PCR initial activation: 95° C. for 20 seconds
(§6) PCR: 95° C. for 1 second • 62° C. for 20 seconds
(§7) This PCR cycle was repetitively performed 40 times.
as §3

The subject of data set [6] is human β-catenin gene. Nature of the data set: Test Example 1: β-catenin gene expression inhibition in SW480 cells, 3 days, real-time PCR. Type of data set: cell-based. The conditions noted are these: for inhibitory activity against β-catenin gene expression (in words): compared with particle containing lipid of Reference Example 2; for IC50: nucleic acid lipid particle of Example 31 containing the named lipid, double-stranded polynucleotide concentration, read-out: β-catenin gene expression inhibitory activity IC50. As for the experimental part: as §4
as §1, with “to 50,000” for “to 50000”, “in an” for “in a”, “lipid particle” for “lipid particle-containing”, “30, 3.0,” for “30, 3,”, “for 3 days.” for “for 4 hours.”
as §2, §5, §6, §7, §3
Background: Quantitative PCR measures a nucleic acid by following its amplification.

Setting [7] is: Example 55: particles prepared as in Example 31, ± deviation.
[8] abbreviates: Example 55: particles prepared as in Example 31 (β-catenin double-stranded polynucleotide).
Where [9] appears, read: Example 55: particles prepared as in Example 31.
Setting [10] is: particles of Example 31, volume-average particle size ± deviation.
The mark [11] stands for this setting: particles of Example 31: DSPC:Chol:LP:PEG-C-DMA=20:48:30:2, CT-157/CT-169 double-stranded polynucleotide.
Setting [12] is: particles of Example 31, total lipids calculated from phospholipid amount and compositional ratio (Table 3).

The IC50 is the concentration at which inhibition is half-maximal. Regarding `CCCCCC[C@H](C/C=C\CCCCCCCC(CCCCCCC/C=C\C[C@@H](CCCCCC)OC(=O)CC)OC(=O)OCCCN(C)C)OC(=O)CC` [Example 41, (7R,9Z,26Z,29R)-18-({[3-(Dimethylamino)propoxy]carbonyl}oxy)pentatriaconta-9,26-diene-7,29-diyl Dipropionate], the Average particle size in data set [1] (setting [7]) is listed as 158 ± 40 nm. Also, in the data set with human β-catenin gene [2], the “inhibitory activity against β-catenin gene expression (in words)” value (“inhibitory activity” below) is given as “strong inhibitory activity” and the IC50 amounted to 2.6 nM. The “Rate of polynucleotide encapsulation” value in data set [3] (setting [8]) is recorded as 97%. In addition, in data set [4] (setting [9]), the “Ratio of polynucleotide to lipid siRNA/lipid” value (shortened to “Ratio … to lipid siRNA/lipid”) turned out to be 0.101 wt/wt.
On to `CCCCC/C=C\C/C=C\CCCCCCCC(CCCCCCC/C=C\C/C=C\CCCCC)OC(=O)OCCCN(C)C` [Example 2, 3-(Dimethylamino)propyl(6Z,9Z,26Z,29Z)-pentatriaconta-6,9,26,29-tetraen-18-yl Carbonate], for which, in data set [1] (setting [10]), the Average particle size was 215 ± 70 nm. The “inhibitory activity” value in the data set with human β-catenin gene [5] and in the data set with human β-catenin gene [6] was “strong inhibitory activity” in each case. Also, the results for the half-inhibitory concentration (IC50) with human β-catenin gene [5] and in the data set on human β-catenin gene [6] were 0.47 nM and 6.8 nM, respectively. Besides, the “Rate of polynucleotide encapsulation” value in data set [3] (setting [11]) amounted to 96.3%. The “Ratio … to lipid siRNA/lipid” value in data set [4] (setting [12]) is 0.099 wt/wt.
In turn, `CCCCCCCCCCCCC(CCCCCCC/C=C\C[C@@H](CCCCCC)OC(C)=O)OC(=O)OCCCN(C)C` (stereo partly drawn) [Example 43, (7R,9Z)-18-({[3-(Dimethylamino)propoxy]carbonyl}oxy)triacont-9-en-7-yl Acetate] came in with an Average particle size in data set [1] (setting [7]) of 174 ± 31 nm. Also, in the data set with human β-catenin gene [2], the “inhibitory activity” value was “strong inhibitory activity” and the half-maximal inhibitory concentration (IC50) came to 24 nM. Moreover, the “Rate of polynucleotide encapsulation” value in data set [3] (setting [8]) stood at 97%. For the same compound, in data set [4] (setting [9]), the “Ratio … to lipid siRNA/lipid” value turned out to be 0.075 wt/wt.
`CCCCCC[C@H](C/C=C\CCCCCCCCC(CCCCCCCC/C=C\C[C@@H](CCCCCC)OC(C)=O)OC(=O)OCCCN(C)C)OC(C)=O` [Example 42, (7R,9Z,28Z,31R)-19-({[3-(Dimethylamino)propoxy]carbonyl}oxy)heptatriaconta-9,28-diene-7,31-diyl Diacetate] yielded an Average particle size in data set [1] (setting [7]) of 188 ± 45 nm. In addition, in the data set with human β-catenin gene [2], the “inhibitory activity” value is “strong inhibitory activity” and the IC50 was 6 nM. Further, the “Rate of polynucleotide encapsulation” value in data set [3] (setting [8]) was 97%. In addition, the “Ratio … to lipid siRNA/lipid” value in data set [4] (setting [9]) came out at 0.077 wt/wt.
The compound `CCCCC/C=C\C/C=C\CCCCCCCCC(CCCCCCCC/C=C\C/C=C\CCCCC)OC(=O)OCCCN(C)C` [Example 1, 3-(Dimethylamino)propyl(6Z,9Z,28Z,31Z)-heptatriaconta-6,9,28,31-tetraen-19-yl Carbonate] yielded an Average particle size in data set [1] (setting [10]) of 183 ± 41 nm. Also, in the data set with human β-catenin gene [5], the “inhibitory activity” value is on record as “strong inhibitory activity” and the IC50 worked out at 0.38 nM. Also, in data set [3] (setting [11]), the “Rate of polynucleotide encapsulation” value is reported as 94.3%. In addition, in the data set with human β-catenin gene [6], the “inhibitory activity” value was “strong inhibitory activity” and the 50% inhibitory concentration (IC50) came out at 3.5 nM. The “Ratio … to lipid siRNA/lipid” value in data set [4] (setting [12]) is listed as 0.109 wt/wt.
